From patent EP0934933A1, “Phthalazinones” (Byk Gulden Lomberg Chemische Fabrik GmbH, priority 1998, dated 1999)

Tested on: PDE4
Experiment: Inhibition of PDE 4 activity (method of Bauer and Schwabe, adapted to microtitre plates)
Assay type: biochemical
Details: measured as -logIC50 (mol/l)

| Compound | -logIC50 |
| --- | --- |
| COc1ccc(-c2nn(CC(=O)c3ccccc3OC)c(=O)c3ccccc23)cc1OC [Compound 7, 4-(3,4-Dimethoxyphenyl)-2-[2-(2-methoxyphenyl)-2-oxoethyl]-2H-phthalazin-1-one] | 7.52 |
| CCOc1cc(-c2nn(CC(=O)c3ccccc3)c(=O)c3ccccc23)ccc1OC [Compound 3, 4-(3-Ethoxy-4-methoxyphenyl)-2-(2-phenyl-2-oxoethyl)-2H-phthalazin-1-one] | 7.28 |
| COc1ccc(-c2nn(CC(=O)c3ccccc3)c(=O)c3ccccc23)cc1OC1CCCC1 [Compound 4, 4-(3-Cyclopentyloxy-4-methoxyphenyl)-2-(2-phenyl-2-oxoethyl)-2H-phthalazin-1-one] | 7.09 |
| CCOc1ccc(-c2nn(CC(=O)c3ccccc3)c(=O)c3ccccc23)cc1OCC [Compound 2, 2-(2-Phenyl-2-oxoethyl)-4-(3,4-diethoxyphenyl)-2H-phthalazin-1-one] | 7.01 |
| COc1ccc(-c2nn(CC(=O)c3cc(Cl)c(N)c(Cl)c3)c(=O)c3ccccc23)cc1OC [Compound 12, 4-(3,4-Dimethoxyphenyl)-2-[2-(4-amino-3,5-dichlorophenyl)-2-oxoethyl]-2H-phthalazin-1-one] | 6.85 |
| COc1ccc(-c2nn(CC(=O)c3ccccc3)c(=O)c3ccccc23)cc1OC(F)F [Compound 5, 4-(3-Difluoromethoxy-4-methoxyphenyl)-2-(2-phenyl-2-oxoethyl)-2H-phthalazin-1-one] | 7.14 |
| COc1ccc(OC)c(C(=O)Cn2nc(-c3ccc(OC)c(OC)c3)c3ccccc3c2=O)c1 [Compound 10, 4-(3,4-Dimethoxyphenyl)-2-[2-(2,5-dimethoxyphenyl)-2-oxoethyl]-2H-phthalazin-1-one] | 6.99 |
